Experimental data reported in patent US5321045A, “Method and composition for the treatment of imflammatory conditions using thiosulphinic acid derivatives” (Boehringer Mannheim GmbH, priority 1987, dated 1994).

Experiments:
[1] = test system: thromboxane biosynthesis of thrombin-stimulated platelet-rich plasma; experiment: Inhibition of the thromboxane biosynthesis of thrombin-stimulated platelet-rich plasma; assay type: cell-based, human; details: 0.001 mg/ml to 1.0 mg/ml, 15 min
Method: The enzyme-inhibiting action of the compounds were determined in vitro; use of the mixture of compounds 1) and 2).
From a human donor was obtained platelet-rich plasma by the usual method and adjusted to a platelet count of […]. This plasma was incubated either with a solvent (1% dimethyl sulphoxide (DMSO) -physiological common salt solution) or with various concentrations of the compounds (s. Table II).
5 Minutes later, the platelets were stimulated with thrombin (1 or 10 International Units=I.U.) at 37° C. After 15 minutes, the reaction was stopped with ice-cold methanol (volume ratio 1:1), thereafter separated by 10 minutes centrifuging at 3000 U/min. (4° C.).

[2] = test system: allergen-induced asthma bronchiale; experiment: Protective action in allergen-induced asthma bronchiale of guinea pigs (ovalbumin inhalation); assay type: in vivo; details: FIGS. 4-6; dosage as in 1a); ovalbumin one percent, twice
Method: 1. Investigation of the asthma-protective action of compounds in vivo. There was used a mixture of compound 1) (identical with formula III on p.13 of the German text) and compound 2) (identical with formula IV on p.13 of the German text). The ratio of 1): 2) amounted to about 1:2.
For the investigation of the asthma-protective action in vivo, corresponding experiments were carried out with guinea pigs (Dorsch W. et al., Pflugers Arch. 391, page 263 (1981).
9 guinea pigs were--was described under 1a)--corresponding to a randomised crossover protocol, either fed with the active component in olive oil or with the carrier olive oil alone. The dosage of the administered compound amounted to 20 mg./kg. body weight. 30 Minutes later, the animals inhaled twice, at an interval of 10 minutes, in each case for 20 seconds, a one percent ovalbumin solution, the substance to which they had been sensitised 3 weeks previously. The extent of the resulting bronchial obstruction was also determined whole body plethysmographically in 2 minute intervals for the period of twice 10 minutes (for the method see: Dorsch W, Walter O., Rosmanith J.: Continuous Recording of Intrapulmonary "Compressed Air" as a Sensitive Noninvasive Method of Measuring Branchial Obstruction in Guinea Pigs, Pflugers Arch. 391: 236-241 (1981)). […]

SMILES	maximum dosage-dependent suppression of the thromboxane B2 biosynthesis [1] [%]	Asthmatic reaction to the inhalation of an antigen [2]
CS[S+](C)[O-] (stereo not shown) [compound 3, methylthiosulphinic acid methyl ester]	61	clearly weaken the asthmatic reaction
[O-][S+](Sc1ccccc1)c1ccccc1 (stereo not shown) [compound 4, phenylthiosulphinic acid phenyl ester]	76	clearly weaken the asthmatic reaction
